Results as given in patent US12458605B2, “Lipid nanoparticle” (National University Corporation Hokkaido University, priority 2020, dated 2025).

Experiments:
Format in all cases: physicochemical
[1] = pKa of lipid nanoparticles by TNS (section II); conditions: F7siRNA-loaded LNP; compared with LNP of straight-chain CL4H6 or CL15H6 (FIG. 1)
Experimental: The pKa of lipid nanoparticles was measured using p-toluidino-2-naphthalenesulfonic acid (TNS). First, TNS (final concentration: 0.75 μM) and lipid nanoparticles (final concentration: […]) were mixed in buffer solution adjusted to each pH. The fluorescence intensity of the prepared mixture was measured with a microplate reader. The highest and lowest values among the measured values were taken as 100% and 0% charge rates respectively, and the pH indicating 50% charge rate was calculated as pKa.

[2] = Average particle size (ζ-Average) and PDI by dynamic light scattering (Zetasizer Nano ZSP)
Summary of the method: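 Dynamic light scattering of the particles in PBS(−) gave both the polydispersity index and the ζ-Average mean size.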

[3] = Storage stability of FlucmRNA-loaded LNP at −80, 5, 25 and 40° C.; conditions: for period for which quality remained good, −80° C.: maximum storage period 1 week; for period for which quality remained good, 5° C. / period for which quality remained good, 25° C. / period for which quality remained good, 40° C. (weeks): maximum storage period 5 weeks
Summary of the method: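 Reported period is how long all three criteria hold: encapsulation rate at 80% or more, PDI of 0.2 or less, and mean particle size within +/−20 nm of day-of-preparation value. Particle size, PDI and nucleic acid encapsulation were tracked over time at storage temperatures of −80, 5, 25 and 40° C.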

[4] = F7siRNA-loaded LNP, 50:10:38.5:1.5, N/P ratio 6
[5] = FlucmRNA-loaded LNP, 50:10:38.5:1.5
[6] = FlucmRNA-loaded LNP, lipid:DSPC:cholesterol:DMG-PEG2K 50:10:38.5:1.5

Structure (SMILES) | pKa of lipid nanoparticle, compared [1] | PDI [2, 4] | ζ-Average (nm) [2, 4] [nm] | PDI [2, 5] | ζ-Average (nm) [2, 6] [nm] | period for which quality remained good, −80° C. [3] [week] | period for which quality remained good, 5° C. [3] [weeks] | period for which quality remained good, 25° C. [3] [weeks] | period for which quality remained good, 40° C. (weeks) [3] [weeks]
CCCCCCCCC(CCCCCC)C(=O)OCCCCCCC(O)(CCCCCCOC(=O)C(CCCCCC)CCCCCCCC)CCCCOC(=O)C1CCN(C)CC1 (stereo not drawn) [CL15F6] | lower pKa | 0.044 | 105.9 | 0.002 | 115.50 | 1 | 5 | 5 | 5
CCCN(CCC)CCCCC(O)(CCCCCCOC(=O)C(CCC(C)CC(C)(C)C)C(C)CC(C)(C)C)CCCCCCOC(=O)C(CCC(C)CC(C)(C)C)C(C)CC(C)(C)C (stereo not drawn) [CL4G6, 7-(4-(dipropylamino)butyl)-7-hydroxytridecan-1,13-diyl bis(2-(4.4-dimethylpentan-2-yl)-5,7,7-trimethyloctanoate)] | lower pKa | 0.048 | 85.14 | 0.030 | 81.21 | 1 | 5 | 5 | 5
